For series [1], the target named is GIRK1/4 (Homo sapiens (Human), UniProt P48544+P48549). Kind of series: GIRK1/4 activity assay (Quattro/IonWorks population patch clamp, inward potassium current). The format is cell-based. The note with it: GIRK1/4 HEK293 stable cells; current inhibition normalized to DMSO-only control. Here is the method: The GIRK1/4 activity of a compound according to the present invention was assessed by the following in vitro method.
• a. External buffer: 10 mM NaCl, 50 mM Na Gluconate, 80 mM K Gluconate, 1.8 mM CaCl2, 1 mM MgCl2, 10 mM HEPES, 10 mM Glucose, pH 7.4; osmolarity 300-310 Osm/L. • b. Internal buffer: 30 mM KCl, 100 mM K Gluconate, 1 mM MgCl2, 10 mM HEPES, 1 mM EGTA, 10 mM NaCl, pH 7.2; osmolarity 284-292 Osm/L. Compounds: • c. Prepare seven-fold compound dilution series (10 mM to 20 uM) in 100% DMSO, in 384-well polypropylene plates. • d. Propafenone (Sigma Aldrich, catalog number P4670) was used as a positive control and DMSO for neutral control • e. Resuspend 1 μl of compounds in DMSO into 66.7 μl external buffer in 384-well polypropylene plate and load into Plate 1 section of Molecular Devices Quattro® Quattro Setup: • f. Load 384-well Population Patch Plate (Molecular Devices #9000-0902) into Quattro • g. Fill Quattro F-soak trough with 20% DMSO and 50% EtOH • h. Fill Quattro buffer trough with external buffer • i. Attach internal buffer flask to Quattro internal buffer tubing • j. Attach PBS (Phosphate Buffered Saline, minus Ca^++ and Mg^++, pH7.4) bottle to F-head & E-head wash on Quattro Antibiotic: • k. Resuspend 5.1-5.8 mg amphotericin B (Sigma Aldrich, catalog number A2411) in 175 μl DMSO • l. Add the resulting solution to 50 mL internal buffer and attach to antibiotic tubing port on Quattro Cells: • m. Use GIRK1/4 HEK293 stable cells (obtained from ChanTest, 14656 Neo Parkway, Cleveland, Ohio 44128) grown to ˜80% confluency in the following cell culture medium: DMEM containing 10% (v/v) Fetal Bovine Serum, Penicillin/Streptomycin (at “IX” concentration from a 100× stock), 0.5 mg/mL G418 and 0.1 mg/mL Zeocin. • n. Detach cells using Detachin (Genlantis, 11011 Torreyana, San Diego, CA 92121), washed with PBS (minus Ca^++ and Mg^++) and resuspend in external buffer (5 mL final volume at 2.0-2.1×10^6 cells/mL) • o. Load into cell trough of Quattro Assay Protocol:
Quattro was controlled using IonWorks v2 software to perform the following steps: • p. Added 3.5 μl cells plus 3.5 μl external buffer to wells of Quattro Patch Plate® • q. Circulated amphotericin B and internal buffer onto cells • r. Applied the following voltage protocol: Pulse 1: 15 mV for 300 milliseconds (ms), followed by Pulse 2: −120 mV for 400 ms, then Pulse 3: −15 mV for 400 ms, and finally Pulse 4: −120 mV to 40 mV over 500 ms (this is a voltage ramp). • s. Measured magnitude of inward potassium current at time point between 1200-1220 ms from start of Pulse 1 (i.e., during the voltage ramp phase). • t. Added 3.5 μl of diluted compounds (or DMSO) to wells and repeated […] (final compound concentrations are 50 uM to 0.1 uM, and each concentration was tested in quadruplicate—i.e., in 4 separate wells). • u. The difference between current magnitude pre vs. post-compound gave a measure of GIRK1/4 inhibition. Data Analysis:
IC50 values were calculated by plotting the percentage of current inhibition (normalized to the DMSO-only control) as a function of compound concentration using standard data analysis software.
(The patch-clamp technique gives a direct electrical read-out from membranes.)

Series [2] is described as follows: Pharmacokinetic properties in rats (IV and PO, whole blood LC-MS/MS). The format is in vivo, Spargue Dawley/CD, male. As to conditions: for Rat AUC0-24 h 3 mg/kg: 3 mg/kg PO, suspension; for Rat AUC0-24 h 3 mg/kg / clearance: whole blood; for clearance: male, Sprague Dawley/CD, rat, IV dosing (0.3-1 mg/kg), CL = Dose/AUCinf; for Rat F: oral bioavailability, PO 3 mg/kg vs IV. On the procedure: The pharmacokinetic properties of the compounds in rats were assessed by the following in vivo studies as described below.
At least four days before first drug administration, the rats (250-350 g) were anesthetized and, under aseptic conditions, catheters were surgically implanted into the left and right jugular veins (one for blood collection and the other one for intravenous injection). The catheters were exteriorized and fixed at the neck. For analgesic treatment, animals received analgesics before surgery and subsequently twice at appropriate times after surgery. The freely-moving animals equipped with catheters are kept individually in Macrolon cages, with free access to food and water throughout the experiment. After a recovery phase of at least 4 days, a single test compound was administered intravenously or orally, based upon the individual body weights.
The test articles were administered as solution in NMP:PEG 200 (10:90 v/v). Test articles where no solution can be obtained were rejected and not used in discrete or cassette dosing.
The test article were administered as suspension in MC:Tween 80:water (0.5:0.1:99.4 w/v/v).
The test article was administered as solution and as a bolus injection or as short I.V. infusion (30 seconds) via the left jugular vein catheter to conscious rats. The dose volume was 0.5 mL/kg body weight.
The test article was administered as a solution or suspension into the esophagus via a gavage tube to conscious rats. The dose volume was 5 mL/kg body weight. The exact start time of dosing and exact dose volume was noted.
Blood samples (20 μL) were collected from the right jugular vein catheter of cannulated animals (if JV catheter becomes non patent during the PK experiment (i.e., after dosing), blood can exceptionally be collected by tail vein puncture but it must be clearly specified into the in-life observations and data study rep) in tubes containing 10% of blood of 2% W/V K2 EDTA (2.0 mg/mL) at the different time intervals. Blood was collected following IV dosing at 0.083, 0.25, 0.5, 1, 2, 4, 7 and 24 h post dose. Blood was collected following PO dosing: 0.25, 0.5, 1, 2, 4, 7 and 24 h post dose.
The concentrations of compounds in whole blood were quantified using a liquid chromatography/mass spectrometry (LC-MS/MS) assay. 20 μL of each blood sample were precipitated with 100 μL of acetonitrile containing generic internal standards (carbamazepine/telmisartan/verapamil; c=50 ng/mL). The samples were vortexed thoroughly then centrifuged (5 min, 4° C.). The supernatant (80 μL) was transferred to a clean 96-well plate and mixed with 80 μL of water.
The samples were injected (1 to 20 μL) onto suitable analytical columns, using various isocratic methods and flow rates. Mobile phases typically consisting of 0.1% formic acid in water (solvent A) and 0.1% formic acid in acetonitrile (solvent B) with additional modifiers, if needed. Compounds and the internal standards were eluted at various retention times. The HPLC systems were interfaced to mass spectrometers. MS/MS analyses were carried out using electrospray ionization (ESI), typically in the positive ionization mode. Compounds and the internal standards were monitored using multiple reaction monitoring (MRM).
The standard curves employed for sample quantitation ranged over several log units. The lower limit of quantitation (LLOQ) in blood was determined and used as cutoff for the analytical sensitivity. Known amounts of the compounds were spiked into blood to create quality control samples with six known concentrations in singlets. The accuracy of the in vivo blood sample concentration determination was considered acceptable when the intra-assay accuracies obtained for the quality control samples were within 70% to 130% of the expected concentrations. Subsequently, from the time concentration data, pharmacokinetic parameters were calculated by non-compartmental regression analyses using an in house fitting program. […]

The term IC50 denotes the concentration that gives 50% inhibition.

Chain of GIRK1/4 (P48549 whole entry): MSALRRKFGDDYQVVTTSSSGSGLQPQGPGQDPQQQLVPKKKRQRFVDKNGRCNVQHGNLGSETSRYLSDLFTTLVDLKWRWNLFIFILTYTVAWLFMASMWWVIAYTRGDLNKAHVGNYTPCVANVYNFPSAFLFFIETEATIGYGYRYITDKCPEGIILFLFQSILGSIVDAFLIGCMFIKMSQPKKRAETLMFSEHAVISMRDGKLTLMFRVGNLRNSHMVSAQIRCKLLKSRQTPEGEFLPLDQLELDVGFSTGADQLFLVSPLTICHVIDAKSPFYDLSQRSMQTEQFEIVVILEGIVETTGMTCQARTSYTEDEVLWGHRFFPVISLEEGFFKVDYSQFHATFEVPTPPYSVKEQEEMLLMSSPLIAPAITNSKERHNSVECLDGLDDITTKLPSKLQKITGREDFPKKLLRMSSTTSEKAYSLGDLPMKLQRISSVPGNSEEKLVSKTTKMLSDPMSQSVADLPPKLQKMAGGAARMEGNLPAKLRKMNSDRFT
Chain of GIRK1/4 (P48544 whole entry): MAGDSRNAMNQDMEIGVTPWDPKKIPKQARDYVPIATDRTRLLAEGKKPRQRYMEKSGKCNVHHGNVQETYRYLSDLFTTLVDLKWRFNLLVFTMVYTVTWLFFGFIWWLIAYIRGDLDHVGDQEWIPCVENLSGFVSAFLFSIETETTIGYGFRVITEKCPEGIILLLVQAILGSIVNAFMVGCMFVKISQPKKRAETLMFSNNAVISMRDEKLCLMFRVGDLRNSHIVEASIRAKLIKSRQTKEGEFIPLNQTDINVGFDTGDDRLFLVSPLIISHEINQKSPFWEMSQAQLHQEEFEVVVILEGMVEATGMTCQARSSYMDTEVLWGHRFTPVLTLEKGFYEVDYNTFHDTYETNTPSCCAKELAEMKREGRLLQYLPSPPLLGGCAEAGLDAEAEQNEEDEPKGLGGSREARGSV

Turning to `Cc1cc(=O)c2c(CC(C)S(C)(=O)=O)ncc(Cl)c2n1-c1c(Cl)cc(OCCO)cc1Cl` (single isomer, unassigned) [Example 21, 8-Chloro-1-(2,6-dichloro-4-(2-hydroxyethoxy)phenyl)-2-methyl-5-(2-(methylsulfonyl)propyl)-1,6-naphthyridin-4(1H)-one], 170 nM corresponded to half-maximal inhibition in series [1] (IC50). Further, in series [2], the “Rat AUC0-24 h 3 mg/kg” value came out at 3200 nMh, the clearance worked out at 10.4 mL/min/kg and the “Rat F” value is 34%.
`CNC(=O)C(C)(C)COc1ncc(Cl)c2c1c(=O)cc(C)n2-c1c(Cl)cc(OCCO)cc1Cl` [Example 11, 3-((8-Chloro-1-(2,6-dichloro-4-(2-hydroxyethoxy)phenyl)-2-methyl-4-oxo-1,4-dihydro-1,6-naphthyridin-5-yl)oxy)-N,2,2-trimethylpropanamide]: the IC50 in series [1] was 160 nM.
Regarding `CNC(=O)[C@@H](O)COc1ncc(Cl)c2c1c(=O)cc(C)n2-c1c(Cl)cc(OCCO)cc1Cl` [Example 13, (S)-3-((8-Chloro-1-(2,6-dichloro-4-(2-hydroxyethoxy)phenyl)-2-methyl-4-oxo-1,4-dihydro-1,6-naphthyridin-5-yl)oxy)-2-hydroxy-N-methylpropanamide], half-maximal inhibition in series [1] (IC50) was put at 60 nM. Moreover, in series [2], the “Rat AUC0-24 h 3 mg/kg” value was found to be 2410 nMh, the clearance came out at 18.4 mL/min/kg and the “Rat F” value was 55%.
Compound `CC(=O)NCCCc1ncc(Cl)c2c1c(=O)cc(C)n2-c1c(Cl)cc(OCCO)cc1Cl` [Example 19, N-(3-(8-Chloro-1-(2,6-dichloro-4-(2-hydroxyethoxy)phenyl)-2-methyl-4-oxo-1,4-dihydro-1,6-naphthyridin-5-yl)propyl)acetamide] returned an IC50 in series [1] of 50 nM. In addition, in series [2], the “Rat AUC0-24 h 3 mg/kg” value is given as 1290 nMh, the clearance turned out to be 27.9 mL/min/kg and the “Rat F” value is reported as 46%.
In turn, `CNC(=O)COc1cc(Cl)c(-n2c(C)cc(=O)c3c(OCC(N)=O)ncc(Cl)c32)c(Cl)c1` [Example 17, 2-(4-(5-(2-Amino-2-oxoethoxy)-8-chloro-2-methyl-4-oxo-1,6-naphthyridin-1(4H)-yl)-3,5-dichlorophenoxy)-N-methylacetamide] yielded an IC50 in series [1] of 250 nM. In series [2], the “Rat AUC0-24 h 3 mg/kg” value came to 2310 nMh, the clearance was determined as 31.7 mL/min/kg and the “Rat F” value is on record as 73%.
Compound `CNC(=O)CCOc1ncc(Cl)c2c1c(=O)cc(C)n2-c1c(Cl)cc(OCC2(O)COC2)cc1Cl` [Example 15, 3-((8-Chloro-1-(2,6-dichloro-4-((3-hydroxyoxetan-3-yl)methoxy)phenyl)-2-methyl-4-oxo-1,4-dihydro-1,6-naphthyridin-5-yl)oxy)-N-methylpropanamide] came in with an IC50 in series [1] of 320 nM. In addition, in series [2], the “Rat AUC0-24 h 3 mg/kg” value is given as 1290 nMh, the clearance was found to be 32.8 mL/min/kg and the “Rat F” value was 46%.
`CNC(=O)[C@@H](C)COc1ncc(Cl)c2c1c(=O)cc(C)n2-c1c(Cl)cc(OCCO)cc1Cl` [Example 8, (S)-3-((8-Chloro-1-(2,6-dichloro-4-(2-hydroxyethoxy)phenyl)-2-methyl-4-oxo-1,4-dihydro-1,6-naphthyridin-5-yl)oxy)-N,2-dimethylpropanamide] came in with an IC50 in series [1] of 70 nM.
For the compound `Cc1cc(=O)c2c(OCCC(N)=O)ncc(Cl)c2n1-c1c(Cl)cc(OCCO)cc1Cl` [Example 18], in series [2], the “Rat AUC0-24 h 3 mg/kg” value is listed as 1702 nMh, the clearance was determined as 38.9 mL/min/kg and the “Rat F” value was 65%.
Consider `CNC(=O)C(F)(F)COc1ncc(Cl)c2c1c(=O)cc(C)n2-c1c(Cl)cc(OCCO)cc1Cl` [Example 16, 3-((8-Chloro-1-(2,6-dichloro-4-(2-hydroxyethoxy)phenyl)-2-methyl-4-oxo-1,4-dihydro-1,6-naphthyridin-5-yl)oxy)-2,2-difluoro-N-methylpropanamide], for which the IC50 in series [1] worked out at 30 nM. This counts as double-digit nanomolar.
Take `CNC(=O)CCOc1ncc(Cl)c2c1c(=O)cc(C)n2-c1c(Cl)cc(OC[C@H](C)O)cc1Cl` [Example 10, (S)-3-((8-Chloro-1-(2,6-dichloro-4-(2-hydroxypropoxy)phenyl)-2-methyl-4-oxo-1,4-dihydro-1,6-naphthyridin-5-yl)oxy)-N-methylpropanamide]: in series [1], the IC50 worked out at 330 nM.
The same measure, in the same setting: then `CNC(=O)[C@H](O)COc1ncc(Cl)c2c1c(=O)cc(C)n2-c1c(Cl)cc(OCCO)cc1Cl` [Example 12, (R)-3-((8-Chloro-1-(2,6-dichloro-4-(2-hydroxyethoxy)phenyl)-2-methyl-4-oxo-1,4-dihydro-1,6-naphthyridin-5-yl)oxy)-2-hydroxy-N-methylpropanamide], with 200 nM; and `CNC(=O)[C@@H](O)COc1ncc(Cl)c2c1c(=O)cc(C)n2-c1c(Cl)cc(OCC(C)(C)O)cc1Cl` [Example 14, (S)-3-((8-chloro-1-(2,6-dichloro-4-(2-hydroxy-2-methylpropoxy)phenyl)-2-methyl-4-oxo-1,4-dihydro-1,6-naphthyridin-5-yl)oxy)-2-hydroxy-N-methylpropanamide], with 170 nM.

Values taken from patent publication US12084442B2, “Naphthyridinone derivatives for the treatment of a disease or disorder” (Novartis AG, priority 2021, dated 2024).
